How the values were obtained:
Axl = biological target: T1, Axl (Homo sapiens, UniProt P30530); test: Phospho-Akt in-cell Western assay (inhibition of Axl activity); format: cell-based
T1 construct: endogenous in cells; host or cells: HeLa cells
T1 sequence (P30530 26-894): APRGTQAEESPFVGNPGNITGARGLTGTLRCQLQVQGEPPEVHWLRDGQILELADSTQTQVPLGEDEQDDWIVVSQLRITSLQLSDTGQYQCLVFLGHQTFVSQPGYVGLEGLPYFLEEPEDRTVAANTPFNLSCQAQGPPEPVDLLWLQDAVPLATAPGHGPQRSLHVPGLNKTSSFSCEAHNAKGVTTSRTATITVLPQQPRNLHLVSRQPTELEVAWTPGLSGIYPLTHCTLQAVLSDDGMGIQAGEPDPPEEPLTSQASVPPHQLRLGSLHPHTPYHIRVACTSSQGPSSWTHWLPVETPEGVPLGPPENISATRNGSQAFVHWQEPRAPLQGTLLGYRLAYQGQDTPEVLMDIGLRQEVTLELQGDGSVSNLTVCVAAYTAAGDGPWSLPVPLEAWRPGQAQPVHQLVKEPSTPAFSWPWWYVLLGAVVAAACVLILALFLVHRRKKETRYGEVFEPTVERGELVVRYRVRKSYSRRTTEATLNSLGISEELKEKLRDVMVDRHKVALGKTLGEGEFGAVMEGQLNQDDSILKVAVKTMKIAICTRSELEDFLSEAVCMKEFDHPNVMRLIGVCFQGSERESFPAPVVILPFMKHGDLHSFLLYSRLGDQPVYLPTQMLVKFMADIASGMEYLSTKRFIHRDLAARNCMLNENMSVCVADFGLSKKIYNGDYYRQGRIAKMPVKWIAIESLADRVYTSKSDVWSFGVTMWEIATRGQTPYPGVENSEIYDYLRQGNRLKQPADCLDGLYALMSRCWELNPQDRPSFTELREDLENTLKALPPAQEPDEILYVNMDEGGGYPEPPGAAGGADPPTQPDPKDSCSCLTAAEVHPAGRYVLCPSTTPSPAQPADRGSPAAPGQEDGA
Summary of the method: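 HeLa cells on poly-L-lysine, starved 24 h in 0.5% FCS DMEM with Axl/Fc 500 ng/mL, pre-treated with compound 1 h at 37° C. Axl stimulated 5 min by anti-Axl/anti-mouse antibody cross-linking. Fixed cells probed with anti-phospho-Akt and HRP secondary, chemiluminescence read.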

[1] = inhibition of Axl activity, Table 1
[2] = Table 5, Hela cells, Axl antibody cross-linking stimulation, phospho-Akt chemiluminescence

Row | SMILES | melting point | IC50 (Axl; [1]) | IC50 (Axl; [2]) | IC50 (Axl; Table 4, Hela cells, Axl antibody cross-linking stimulation, phospho-Akt chemiluminescence) | IC50 (Axl; Table 3, Hela cells, Axl antibody cross-linking stimulation, phospho-Akt chemiluminescence)
1 | Cc1cccc(C(=O)n2nc(Nc3cccc(OCC(=O)NCCN4CCOCC4)c3)nc2N)c1 [(Ia-18), 5-amino-1-(3-methylphenyl)carbonyl-3-[3-[2-(4-morpholinyl)ethylaminocarbonylmethoxy]phenyl]amino-1H-1,2,4-triazole] | 145 to 147 °C | 1 to 10 µM | – | – | –
2 | Cc1cccc(C(=O)n2nc(Nc3cccc(OCC(=O)N4CCN(C(=O)OC(C)(C)C)CC4)c3)nc2N)c1 [(Ia-19)] | 206 to 208 °C | > 20 µM | – | – | –
3 | Cc1cccc(C(=O)n2nc(Nc3cccc(OCC(=O)N4CCNCC4)c3)nc2N)c1 [(Ia-20), 5-amino-1-(3-methylphenyl)carbonyl-3-[3-(piperazin-4-ylcarbonylmethoxy)phenyl]amino-1H-1,2,4-triazole] | 169 to 171 °C | 1 to 10 µM | – | – | –
4 | Cc1cccc(C(=O)n2nc(Nc3cccc(OCCN4CCOCC4)c3)nc2N)c1 [(Ia-27)] | 60 to 63 °C | 1 to 10 µM | – | – | –
5 | C=CCN(C)Cc1cc2cc(Nc3nc(N)n(C(=O)c4cccc(C)c4)n3)ccc2o1 [(Ia-28), 5-amino-3-(2-((allyl(methyl)amino)methyl)benzofuran-5-yl)amino-1-(3-methylphenyl)carbonyl-1H-1,2,4-triazole] | 128 to 131 °C | – | 1 to 10 µM | – | –
6 | CNCc1cc2cc(Nc3nc(N)n(C(=O)c4cccc(C)c4)n3)ccc2o1 [(Ia-29), 5-amino-3-(2-((methylamino)methyl)benzofuran-5-yl)amino-1-(3-methylphenyl)carbonyl-1H-1,2,4-triazole] | 128 to 131 °C | – | < 1 µM | – | –
7 | Nc1nc(Nc2ccccc2)n(C(=O)/C=C/c2ccco2)n1 [compound 140, 3-amino-5-phenylamino-1-(trans-2-(furan-2-yl)ethenyl)carbonyl-1H-1,2,4-triazole] | 190 to 193 °C | – | – | > 20 µM | –
8 | Nc1nc(Nc2ccccc2)nn1C(=O)/C=C/c1ccco1 [compound 141, 5-amino-3-phenylamino-1-(trans-2-(furan-2-yl)ethenyl)carbonyl-1H-1,2,4-triazole] | 212 to 216 °C | – | – | – | 1 to 10 µM

Now from value to molecule:

Row | melting point | IC50 (Axl; [1]) | IC50 (Axl; [2]) | IC50 (Axl; Table 4, Hela cells, Axl antibody cross-linking stimulation, phospho-Akt chemiluminescence) | IC50 (Axl; Table 3, Hela cells, Axl antibody cross-linking stimulation, phospho-Akt chemiluminescence) | SMILES
9 | 182.9 to 186.1 °C | 1 to 10 µM | – | – | – | CC(C)Oc1ccc(C(=O)n2nc(Nc3ccc(OCC#N)cc3)nc2N)cc1 [(Ia-12), 5-amino-3-[4-(cyanomethoxy)phenylamino]-1-(4-(iso-propoxy)phenyl)carbonyl-1H-1,2,4-triazole]
10 | 204.2 to 211.9 °C | 1 to 10 µM | – | – | – | CC(C)Oc1ccc(C(=O)n2nc(Nc3cccc(O)c3)nc2N)cc1 [(Ia-13), 5-amino-3-[3-(hydroxy)phenylamino]-1-(4-(iso-propoxy)phenyl)carbonyl-1H-1,2,4-triazole]
11 | 211.3 to 214.8 °C | 1 to 10 µM | – | – | – | CC(C)Oc1cccc(C(=O)n2nc(Nc3cccc(O)c3)nc2N)c1 [(Ia-16), 5-amino-3-[3-(hydroxy)phenylamino]-1-(3-(iso-propoxy)phenyl)carbonyl-1H-1,2,4-triazole]
12 | 131.1 to 132.4 °C | > 20 µM | – | – | – | CC(C)Oc1cccc(C(=O)n2nc(Nc3cccc(OCc4ccccc4)c3)nc2N)c1 [(Ia-17), 5-amino-3-[3-(benzyloxy)phenylamino]-1-(3-(iso-propoxy)phenyl)carbonyl-1H-1,2,4-triazole]
13 | 152 to 153.7 °C | 1 to 10 µM | – | – | – | CC(C)Oc1ccc(C(=O)n2nc(Nc3cccc(OCCN4CCOCC4)c3)nc2N)cc1 [(Ia-22)]
14 | 144.4 to 145.4 °C | 1 to 10 µM | – | – | – | CC(C)Oc1ccc(C(=O)n2nc(Nc3cccc(OCCC4OCCO4)c3)nc2N)cc1 [(Ia-24), 5-amino-3-[3-[2-(1,3-dioxolan-2-yl)ethoxy]phenylamino]-1-(4-(iso-propoxy)phenyl)carbonyl-1H-1,2,4-triazole]
15 | 188.7 to 189.9 °C | > 20 µM | – | – | – | CC(C)Oc1ccc(C(=O)n2nc(Nc3cccc(OCc4ccccc4)c3)nc2N)cc1 [(Ia-25), 5-amino-3-[3-(benzyloxy)phenylamino]-1-(4-(iso-propoxy)phenyl)carbonyl-1H-1,2,4-triazole]

— patent US8389557B2, “Triazole derivatives useful as Axl inhibitors” (Rigel Pharmaceuticals, Inc., priority 2005, dated 2013)
